What was measured:
[1] = refractive index (Na D-line) (dimensionless); xn = mol fraction of the nth substance listed; conditions: 298.15 K, 101.3 kPa, Liquid, Standard Abbe refractometry
[2] = xn = mol fraction of the nth substance listed; conditions: 101.3 kPa, Liquid; for viscosity: Falling or rolling sphere viscometry; for mass density: Vibrating tube method

CC(=O)O.CCCCN [butylammonium acetate] + CCCCO
[1]
Conditions	refractive index
x1 = 0.029	1.3999
x1 = 0.0583	1.4023
x1 = 0.1003	1.4053
x1 = 0.1981	1.4115
x1 = 0.2981	1.417
x1 = 0.399	1.4217
x1 = 0.497	1.4256
x1 = 0.6489	1.4314
x1 = 0.7984	1.4366
x1 = 0.9003	1.4399

[2]
Conditions	mass density, 293.15 K [kg/m3]	mass density, 298.15 K [kg/m3]	mass density, 303.15 K [kg/m3]	mass density, 308.15 K [kg/m3]	mass density, 313.15 K [kg/m3]	viscosity, 293.15 K [mPa·s]	viscosity, 298.15 K [mPa·s]	viscosity, 303.15 K [mPa·s]	viscosity, 308.15 K [mPa·s]	viscosity, 313.15 K [mPa·s]
x1 = 0.029	817.08	813.28	809.45	805.57	801.67	3.564	3.19	2.787	2.455	2.164
x1 = 0.0583	824.15	820.36	816.55	812.7	808.82	4.397	3.806	3.318	2.908	2.592
x1 = 0.1003	833.62	829.88	826.11	822.23	818.46	5.588	4.823	4.165	3.636	3.17
x1 = 0.1981	853.55	849.9	846.22	842.52	838.78	9.789	8.389	7.151	6.123	5.297
x1 = 0.2981	871.49	867.92	864.33	860.72	857.08	17.14	14.41	12.18	10.39	8.894
x1 = 0.399	887.71	884.21	880.69	877.17	873.62	28.33	23.48	19.6	16.5	14
x1 = 0.497	901.99	898.53	895.09	891.62	888.15	50.23	41.01	33.21	28.45	23.98
x1 = 0.6489	921.84	918.48	915.12	911.75	908.37	107.74	86.03	69.14	56.31	45.89
x1 = 0.7984	939.21	935.95	932.68	929.4	926.1	225.04	170.61	138.1	109.79	87.65
x1 = 0.9003	949.8	946.58	943.37	940.16	936.93	389.54	287.99	216.86	167.15	129.84

CC(=O)O.CCCCN [butylammonium acetate] + CO
[1]
Conditions	refractive index
x1 = 0.0302	1.3413
x1 = 0.0597	1.3526
x1 = 0.1011	1.3665
x1 = 0.1992	1.3878
x1 = 0.301	1.403
x1 = 0.4023	1.4144
x1 = 0.4995	1.4212
x1 = 0.6524	1.4316
x1 = 0.7993	1.4365
x1 = 0.8988	1.4398

[2]
Conditions	mass density, 293.15 K [kg/m3]	mass density, 298.15 K [kg/m3]	mass density, 303.15 K [kg/m3]	mass density, 308.15 K [kg/m3]	mass density, 313.15 K [kg/m3]	viscosity, 293.15 K [mPa·s]	viscosity, 298.15 K [mPa·s]	viscosity, 303.15 K [mPa·s]	viscosity, 308.15 K [mPa·s]	viscosity, 313.15 K [mPa·s]
x1 = 0.0302	814.76	810.3	805.81	801.29	796.74	0.883	0.82	0.763	0.712	0.666
x1 = 0.0597	832.65	828.3	823.98	819.63	815.28	1.237	1.141	1.053	0.975	0.905
x1 = 0.1011	852.44	848.33	844.2	840.05	835.89	1.933	1.759	1.607	1.474	1.357
x1 = 0.1992	884.85	881.05	877.23	873.38	869.54	4.825	4.283	3.828	3.437	3.099
x1 = 0.301	906.27	902.66	899.04	895.45	891.77	11.1	9.608	8.354	7.294	6.415
x1 = 0.4023	920.99	917.52	914.03	910.53	907.04	23.22	19.57	16.66	14.34	12.54
x1 = 0.4995	931.42	928.03	924.64	921.23	917.83	44.76	36.68	30.45	25.59	21.65
x1 = 0.6524	943.29	940	936.69	933.39	930.08	115.48	92.51	69.01	53.46	47.61
x1 = 0.7993	951.52	948.31	945.07	941.83	938.59	256.45	195.97	151.07	118.32	94.24
x1 = 0.8988	955.88	952.69	949.49	946.3	943.09	418.49	312.52	242.56	183.85	142.67

CC(=O)O.CCCCN [butylammonium acetate] + CCCO
[1]
Conditions	refractive index
x1 = 0.0315	1.3875
x1 = 0.0601	1.3912
x1 = 0.0977	1.3953
x1 = 0.198	1.4045
x1 = 0.3002	1.4122
x1 = 0.4021	1.4185
x1 = 0.497	1.4236
x1 = 0.6487	1.4305
x1 = 0.799	1.4362
x1 = 0.8981	1.4395

[2]
Conditions	mass density, 293.15 K [kg/m3]	mass density, 298.15 K [kg/m3]	mass density, 303.15 K [kg/m3]	mass density, 308.15 K [kg/m3]	mass density, 313.15 K [kg/m3]	viscosity, 293.15 K [mPa·s]	viscosity, 298.15 K [mPa·s]	viscosity, 303.15 K [mPa·s]	viscosity, 308.15 K [mPa·s]	viscosity, 313.15 K [mPa·s]
x1 = 0.0315	814.1	810.13	806.12	802.09	798.01	2.862	2.496	2.202	1.955	1.672
x1 = 0.0601	822.82	818.91	814.95	810.95	806.91	3.515	3.158	2.773	2.447	2.167
x1 = 0.0977	833.38	829.52	825.63	821.7	817.72	4.733	4.116	3.595	3.157	2.828
x1 = 0.198	857.48	853.76	850	846.22	842.42	8.602	7.371	6.367	5.493	4.77
x1 = 0.3002	877.71	874.1	870.46	866.8	863.11	17.5	14.77	12.51	10.66	9.154
x1 = 0.4021	894.7	891.19	887.65	884.1	880.52	31.54	26.08	22.23	18.48	15.72
x1 = 0.497	908.39	904.94	901.48	898.01	894.53	47.48	38.69	31.74	26.4	22.13
x1 = 0.6487	927.09	923.74	920.37	917	913.6	108.49	87.22	70.42	56.62	46.76
x1 = 0.799	942.52	939.27	936.01	932.73	929.43	244.69	186.83	148.78	116.88	93.14
x1 = 0.8981	951.47	948.25	945.03	941.83	938.61	445.2	326.53	244.83	186.41	144.84

CC(=O)O.CCCCN [butylammonium acetate] + CCO
[1]
Conditions	refractive index
x1 = 0.0319	1.3681
x1 = 0.0608	1.3731
x1 = 0.0999	1.3804
x1 = 0.1977	1.3965
x1 = 0.2965	1.4073
x1 = 0.4008	1.4152
x1 = 0.5005	1.4219
x1 = 0.6454	1.4292
x1 = 0.8019	1.436
x1 = 0.9009	1.4396

[2]
Conditions	mass density, 293.15 K [kg/m3]	mass density, 298.15 K [kg/m3]	mass density, 303.15 K [kg/m3]	mass density, 308.15 K [kg/m3]	mass density, 313.15 K [kg/m3]	viscosity, 293.15 K [mPa·s]	viscosity, 298.15 K [mPa·s]	viscosity, 303.15 K [mPa·s]	viscosity, 308.15 K [mPa·s]	viscosity, 313.15 K [mPa·s]
x1 = 0.0319	805.12	800.93	796.71	792.46	788.16	1.644	1.488	1.349	1.226	1.117
x1 = 0.0608	817.26	813.17	809.04	804.88	800.68	2.184	1.959	1.764	1.593	1.442
x1 = 0.0999	831.76	827.77	823.74	819.69	815.6	3.042	2.707	2.42	2.171	1.908
x1 = 0.1977	860.95	857.19	853.35	849.49	845.68	6.773	5.903	5.176	4.557	4.013
x1 = 0.2965	883.07	879.43	875.76	872.09	868.39	13.92	11.88	10.23	8.831	7.695
x1 = 0.4008	901.46	897.94	894.4	890.81	887.18	26.61	22.28	18.84	16.06	13.75
x1 = 0.5005	915.65	912.21	908.76	905.3	901.83	49.22	40.2	33.21	27.76	23.37
x1 = 0.6454	932.09	928.75	925.39	922.03	918.66	113.11	90.9	72.83	59.18	48.51
x1 = 0.8019	945.97	942.74	939.48	936.22	932.94	264.17	201.81	156.42	122.42	97.36
x1 = 0.9009	953.34	950.15	946.94	943.74	940.53	475.32	347.84	260.75	197.78	152.81

Reference: the NIST ThermoML archive (doi:10.1021/je200707b)
